From PMC5336470, “Insights into the mechanism of membrane pyrophosphatases by combining experiment and computer simulation” (Structural Dynamics, 2017) come the findings set out here.

This assay addresses T1, VrPPase (Vigna radiata, UniProt P21616).
T1 construct: VrPPase reconstituted into liposomes (proteoliposomes); homodimer
T1 sequence (P21616 2-766): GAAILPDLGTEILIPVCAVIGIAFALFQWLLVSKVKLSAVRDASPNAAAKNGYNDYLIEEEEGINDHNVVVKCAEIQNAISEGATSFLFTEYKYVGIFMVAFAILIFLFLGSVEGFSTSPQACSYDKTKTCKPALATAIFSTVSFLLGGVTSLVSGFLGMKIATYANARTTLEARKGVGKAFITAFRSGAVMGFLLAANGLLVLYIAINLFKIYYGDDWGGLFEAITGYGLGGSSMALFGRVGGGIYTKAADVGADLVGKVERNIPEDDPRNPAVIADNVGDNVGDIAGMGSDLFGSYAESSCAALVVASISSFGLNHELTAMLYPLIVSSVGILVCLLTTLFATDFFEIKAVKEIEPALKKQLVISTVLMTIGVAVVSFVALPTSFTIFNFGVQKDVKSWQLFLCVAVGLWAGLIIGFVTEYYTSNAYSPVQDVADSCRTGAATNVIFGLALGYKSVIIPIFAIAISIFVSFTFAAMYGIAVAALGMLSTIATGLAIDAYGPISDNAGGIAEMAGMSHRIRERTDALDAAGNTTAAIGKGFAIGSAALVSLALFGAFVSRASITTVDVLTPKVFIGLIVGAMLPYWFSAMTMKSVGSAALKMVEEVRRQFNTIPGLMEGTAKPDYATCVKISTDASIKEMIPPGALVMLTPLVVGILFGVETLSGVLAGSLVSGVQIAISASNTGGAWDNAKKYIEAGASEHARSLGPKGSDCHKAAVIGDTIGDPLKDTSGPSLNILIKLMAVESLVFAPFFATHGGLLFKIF
Briefly: SURFE2R N1 electrometric proton-pumping current, proteoliposomes. Type of assay: biochemical. As to conditions: 200 uM K2HPO4 as control, 10 uM CCCP as protonophore control.

For the molecule `O=P(O)(O)NP(=O)(O)O` [imidodiphosphate], the “SURFE2R N1 electrometric proton-pumping current, proteoliposomes” value (50 uM IDP, non-hydrolysable substrate analogue) is given as “IDP-bound VrPPase specifically pumps protons”. In the case of `O=P(O)(O)CP(=O)(O)O` [methylene diphosphonate], the “SURFE2R N1 electrometric proton-pumping current, proteoliposomes” value (50 uM MEDP, non-hydrolysable substrate analogue) is reported as “VrPPase in the presence of another substrate analogue, methylene diphosphonate (MEDP), similarly produces a change”. With `O=P(O)(O)OP(=O)(O)O` [pyrophosphate], the “SURFE2R N1 electrometric proton-pumping current, proteoliposomes” value (50 uM K4PPi) is “Addition of CCCP to membrane-embedded VrPPase in the presence of PPi reduces the ion-pumping current”.
